The values below come from patent US6844353B2, “Fungicidal properties of sampangine and its analogs to agriculturally important fungal plant pathogens” (The United States of America as represented by the …, priority 2003, dated 2005).

SMILES strings stand for the structures. Like-named read-outs stand apart in the source and are kept apart here.

Experiment [1] concerns C. fragariae isolate CF-75. Kind of experiment: Detached strawberry leaf assay. The class given is in vivo, Colletotrichum fragariae. The conditions noted are these: detached strawberry leaves (cultivar Chandler), five days after application. From the text: Strawberry plants of the cultivar Chandler were maintained in a warm greenhouse under conditions suitable for optimum vegetative growth. The youngest fully expanded leaf with the entire petiole from each plant was collected. The petiole of each leaf was inserted into a small test tube (10×4 mm) and filled with sterile distilled water. The left leaflet of each leaf was inoculated with C. fragariae isolate CF-75 (1.5×10^6 conidia/ml) using a hand pump sprayer. The inoculated leaves were placed in a dew chamber and incubated overnight at 30° C. and 100% relative humidity, removed from the dew chamber and allowed to dry. The test compound was applied using a chromatography sprayer until the upper surface of each leaflet was coated. After allowing the leaves to air dry for 2 hours, the right leaflet of each leaf was inoculated with C. fragariae isolate CF-75. The leaves were incubated in the dew chamber at 30° C. and 100% relative humidity for 48 hours. The leaves were then removed from the dew chamber and held in a moist chamber for 3 days (total of five days since test compounds were applied). The number of lesions on each leaflet were then counted.

Experiment [2] concerns F. oxysporum. As to the kind of experiment: 96-well microtiter plate assay, fungal growth inhibition. The conditions noted are these: for Percent inhibition−Percent Stimulation±SEM: F. oxysporum; for inhibition at 0.3 µM / inhibition at 3 µM / inhibition at 30 µM: Fusarium oxysporum, read-out: Percent inhibition−Percent Stimulation±SEM. The class given is cell-based, Fusarium oxysporum. The text has this: (§1) Pathogen production. Isolates of Colletotrichum acutatum Simmonds, Colletotrichum fragariae Brooks, and Colletotrichum gloeosporioides (Penz.) Penz. & Sacc. in Penz. were obtained from B. J. Smith, USDA, ARS, Small Fruit Research Station, Poplarville, Miss. Colletotrichum fragariae (isolate CF63), C. acutatum (isolate CAGoff), and C. gloeosporioides (isolate CG162) were used for all pathogen and bioautography studies. Isolate CF63 is one of the most virulent isolates at infecting strawberry plants and inducing both crown and fruit rot (Smith and Black, 1990). CF63, CAGoff, and CG162 were used as standard test isolates because of our extensive knowledge of these isolates and their known fungicide sensitivity profiles in both bioautography and microtiter formats. The three Colletotrichum species were isolated from strawberry (Fragaria x ananassa Duchesne). Botrytis cinerea Pers.: Fr, was isolated from commercial grape (Vitis vinifera L.) and Fusarium oxysporum Schlechtend: Fr from orchid (Cynoches sp.). Phomopsis viticola (Sacc.) and P. obscurans (Ellis & Everh.) Sutton were from Mike A. Ellis, Ohio State University, Wooster, Ohio. Fungi were grown on potato-dextrose agar (PDA, Difco, Detroit, Mich.) in 9 cm petri dishes and incubated in a growth chamber at 24±2° C. and under cool-white fluorescent lights ([…]·m^−2·sec^−1 light) with 12 hour photoperiod.
(§2) Inoculum preparation. Conidia were harvested from 7-10 day-old cultures by flooding plates with 5 mL of sterile distilled water and dislodging conidia by softly brushing the colonies with an L-shaped glass rod. Conidial suspensions were filtered through sterile miracloth (Calbiochem-Novabiochem Corp., La Jolla, Calif.) to remove mycelia. Conidia concentrations were determined photometrically, from a standard curve based on the percent of transmittance (% T) at 625 nm and suspensions were then adjusted with sterile distilled water to a concentration of 1.0×10^6 conidia/mL.
(§3) Microtiter assay. A standardized 96-well microtiter plate assay developed for discovery of natural product fungicidal agents was used to evaluate naturally occurring antifungal agents from Macaranga monanara. A 96-well microtiter assay was used to determine sensitivity of B. cinerea, C. acutatum, C. fragariae, C. gloeosporioides, F. oxysporum, Phomopsis viticola, and P. obscurans to the various antifungal agents in comparison with known fungicidal standards. Vinclozolin, captan, and thiabendazole, which represent three different modes of action, were used as standards in this experiment. Each fungus was challenged in a dose-response format using test compounds where the final treatment concentrations were 0.3, 3.0 and 30.0 μM. Microtiter plates (Nunc MicroWell, untreated; Roskilde, Denmark) were covered with a plastic lid and incubated in a growth chamber as described previously for fungal growth. Growth was then evaluated by measuring absorbance of each well at 620 nm using a microplate photometer (Packard Spectra Count, Packard Instrument Co., Downers Grove, Ill.). Microtiter plates (Nunc MicroWell, untreated; Roskilde, Denmark) were covered with a plastic lid and incubated in a growth chamber at 24±1° C. and 12 hour photoperiod under 60±5 μmol light. Growth was then evaluated by measuring absorbance of each well at 620 nm using a microplate photometer (Packard Spectra Count, Packard Instrument Co., Downers Grove, Ill.).
(§4) Microbioassy Experimental Design. Chemical sensitivity each of B. cinerea, C. acutatum, C. fragariae, C. gloeosporiodes, F. oxysporum, Phomopsis viticola, and P. obscurans was evaluated using 96-well plate microbioassay format. Each chemical was evaluated in duplicate at each dose (0.3, 3.0 and 30.0 μM). […]

In experiment [3] the test system is C. gloeosporioides. The description is as above. The conditions noted are these: for Percent inhibition−Percent Stimulation±SEM: C. gloeosporioides; for inhibition at 0.3 µM / inhibition at 3 µM / inhibition at 30 µM: Colletotrichum gloeosporioides, read-out: Percent inhibition−Percent Stimulation±SEM. Type of experiment: cell-based, Colletotrichum gloeosporioides.
Excerpt: as §1, §2, §3, §4

Experiment [4] has as its system C. fragariae. The description is as above. The conditions noted are these: for Percent inhibition−Percent Stimulation±SEM: C. fragariae; for inhibition at 0.3 µM / inhibition at 3 µM / inhibition at 30 µM: Colletotrichum fragariae, read-out: Percent inhibition−Percent Stimulation±SEM. The class given is cell-based, Colletotrichum fragariae.
Excerpt: as §1, §2, §3, §4

In experiment [5] the test system is C. acutatum. The description is as above. Type of experiment: cell-based, Colletotrichum acutatum. The conditions noted are these: for Percent inhibition−Percent Stimulation±SEM: C. acutatum; for inhibition at 0.3 µM / inhibition at 3 µM / inhibition at 30 µM: Colletotrichum acutatum, read-out: Percent inhibition−Percent Stimulation±SEM.
Excerpt: as §1, §2, §3, §4

The subject of experiment [6] is B. cinerea. The description is as above. The conditions noted are these: for Percent inhibition−Percent Stimulation±SEM: B. cinerea; for inhibition at 0.3 µM / inhibition at 3 µM / inhibition at 30 µM: Botrytis cinerea, read-out: Percent inhibition−Percent Stimulation±SEM. The class given is cell-based, Botrytis cinerea.
Excerpt: as §1, §2, §3, §4

For `CO/C=C(/C(=O)OC)c1ccccc1Oc1cc(Oc2ccccc2C#N)ncn1` [Azoxystrobin], the “Disease severity scores (# disease lesions)” value in experiment [1] (Concentration 625 (unit not given)) stood at 4.46; in experiment [1] (Concentration 1250 (unit not given)), 1.58; in experiment [1] (Concentration 2500 (unit not given)), 3.54.

Regarding `N#CC(CCc1ccc(Cl)cc1)(Cn1cncn1)c1ccccc1` (stereo not drawn) [Fenbucanazole], the “Percent inhibition−Percent Stimulation±SEM” value was −15.3 ± 2.6% in experiment [2] (0.3 μM, 48 hrs); −10.4 ± 2.7% in experiment [2] (0.3 μM, 72 hrs); −33.1 ± 4.2% in experiment [2] (3.0 μM, 48 hrs); −29.3 ± 2.6% in experiment [2] (3.0 μM, 72 hrs); −45.5 ± 3.4% in experiment [2] (30 μM, 48 hrs); −44.5 ± 2.5% in experiment [2] (30 μM, 72 hrs). The “Percent inhibition−Percent Stimulation±SEM” value in experiment [3] (0.3 μM, 48 hrs) is reported as −86.1 ± 1.4%; in experiment [3] (0.3 μM, 72 hrs), −59.1 ± 3.6%; in experiment [3] (3.0 μM, 48 hrs) it was −95.0 ± 1.1%; in experiment [3] (3.0 μM, 72 hrs) it was −98.1 ± 0.4%; in experiment [3] (30 μM, 48 hrs) it was −99.0 ± 0.7%; in experiment [3] (30 μM, 72 hrs), −99.6 ± 0.2%. Also, the “Percent inhibition−Percent Stimulation±SEM” value is given as −26.8 ± 14.1% in experiment [4] (0.3 μM, 48 hrs); 19.0 ± 7.7% in experiment [4] (0.3 μM, 72 hrs); −37.0 ± 15.3% in experiment [4] (3.0 μM, 48 hrs); 4.7 ± 4.2% in experiment [4] (3.0 μM, 72 hrs); −99.3 ± 1.1% in experiment [4] (30 μM, 48 hrs); −97.7 ± 0.6% in experiment [4] (30 μM, 72 hrs). Moreover, the “Percent inhibition−Percent Stimulation±SEM” value in experiment [5] (0.3 μM, 48 hrs) is 13.0 ± 5.8%; in experiment [5] (0.3 μM, 72 hrs) it was 16.3 ± 5.4%; in experiment [5] (3.0 μM, 48 hrs) it was −3.8 ± 4.8%; in experiment [5] (3.0 μM, 72 hrs), −89.9 ± 6.8%; in experiment [5] (30 μM, 48 hrs), −39.2 ± 3.3%; in experiment [5] (30 μM, 72 hrs), −21.7 ± 5.8%. The “Percent inhibition−Percent Stimulation±SEM” value is recorded as −46.0 ± 34.2% in experiment [6] (0.3 μM, 48 hrs); −49.6 ± 24.7% in experiment [6] (0.3 μM, 72 hrs); −35.9 ± 28.3% in experiment [6] (3.0 μM, 48 hrs); −47.0 ± 23.0% in experiment [6] (3.0 μM, 72 hrs); 17.6 ± 52.2% in experiment [6] (30 μM, 48 hrs); −29.9 ± 24.2% in experiment [6] (30 μM, 72 hrs).

For orientation: inhibition means the drop in the measured response relative to a control, in per cent. As to `CC1(C(=O)Nc2ccc(O)c(Cl)c2Cl)CCCCC1` [Fenhexamid], the inhibition at 0.3 µM was 3 ± 4.4% in experiment [2] (48 h); -0.1 ± 2.8% in experiment [2] (72 h); -21.6 ± 9% in experiment [3] (48 h); -11.3 ± 5.5% in experiment [3] (72 h); -30.2 ± 10% in experiment [4] (48 h); -12 ± 6.7% in experiment [4] (72 h). The inhibition at 0.3 µM in experiment [5] (48 h) is -21.6 ± 6.7%; in experiment [5] (72 h), -20.4 ± 5.6%; in experiment [6] (48 h) it was 82.9 ± 31.5%; in experiment [6] (72 h), 71.4 ± 24.7%. Moreover, the inhibition at 3 µM in experiment [2] (48 h) was 15.3 ± 1.7%; in experiment [2] (72 h), 3.7 ± 2.6%; in experiment [3] (48 h), -32.5 ± 6.4%; in experiment [3] (72 h) it was -16 ± 2%; in experiment [4] (48 h), -13.6 ± 6.3%; in experiment [4] (72 h), -9.9 ± 4.3%. For the same molecule, the inhibition at 3 µM in experiment [5] (48 h) is -6.5 ± 4.9%; in experiment [5] (72 h), -21.8 ± 4.3%; in experiment [6] (48 h), 34.2 ± 29.1%; in experiment [6] (72 h), 42.7 ± 20.6%. Moreover, the inhibition at 30 µM in experiment [2] (48 h) is 28.5 ± 1.3%; in experiment [2] (72 h), 21.2 ± 2.1%; in experiment [3] (48 h), -0.3 ± 3%; in experiment [3] (72 h) it was 6.5 ± 4.2%; in experiment [4] (48 h), 19.9 ± 3.4%; in experiment [4] (72 h), 19.5 ± 5.4%. Further, the inhibition at 30 µM in experiment [5] (48 h) turned out to be 13.8 ± 5.3%; in experiment [5] (72 h), 1.5 ± 6.7%; in experiment [6] (48 h), 49.2 ± 32.1%; in experiment [6] (72 h) it was 40.9 ± 22.6%.

For the molecule `CC(C)NC(=O)N1CC(=O)N(c2cc(Cl)cc(Cl)c2)C1=O` [Iprodione], the inhibition at 0.3 µM in experiment [2] (48 h) was 1.8 ± 2.6%; in experiment [2] (72 h), -2.3 ± 3%; in experiment [3] (48 h), -33.4 ± 10.1%; in experiment [3] (72 h), -17.5 ± 6.7%; in experiment [4] (48 h), -36.4 ± 12.3%; in experiment [4] (72 h), -17.1 ± 3.6%. Further, the inhibition at 0.3 µM in experiment [5] (48 h) is -26.4 ± 10.7%; in experiment [5] (72 h), -26.8 ± 9.9%; in experiment [6] (48 h), -10.4 ± 11.1%; in experiment [6] (72 h) it was 28.3 ± 27.9%. The inhibition at 3 µM in experiment [2] (48 h) is 8.3 ± 3.1%; in experiment [2] (72 h) it was -4.1 ± 4%; in experiment [3] (48 h) it was -49.6 ± 8.4%; in experiment [3] (72 h), -30.7 ± 4%; in experiment [4] (48 h), -42.6 ± 10.4%; in experiment [4] (72 h) it was -24 ± 4.6%. In addition, the inhibition at 3 µM was -18.1 ± 3.2% in experiment [5] (48 h), -10.7 ± 3.1% in experiment [5] (72 h), 34.2 ± 29.1% in experiment [6] (48 h) and 43.3 ± 20.5% in experiment [6] (72 h). For the same molecule, the inhibition at 30 µM in experiment [2] (48 h) was 7.7 ± 4.6%; in experiment [2] (72 h) it was -11.2 ± 5.3%; in experiment [3] (48 h), 23.4 ± 9.1%; in experiment [3] (72 h) it was -17.4 ± 7.9%; in experiment [4] (48 h), -63.2 ± 10.7%; in experiment [4] (72 h), -57.7 ± 12%. Further, the inhibition at 30 µM is -27.9 ± 5.5% in experiment [5] (48 h), -64.8 ± 4% in experiment [5] (72 h), 38.1 ± 29.3% in experiment [6] (48 h) and 41.3 ± 20.6% in experiment [6] (72 h).
